Read-outs that look alike come from different tables or passages of the source.
Experiments:
Jurkat cells [1] = details: Jurkat cells expressing OT-001662; for Off kinetics (CD40L surface expression, FACS): induced with TMP 50 μM
Method: Kinetics were tested using stably transduced Jurkat cells expressing OT-001662. To study the kinetics of turning on the expression of CD40L, cells were treated with TMP (5 or 50 μM) and fixed for FACS after: 0, 3, 6, 9, 24, 48 hours. At the end of the experiment all fixed were stained and analyzed via FACS in parallel. To study the kinetics of turning off expression, expression was first induced in Jurkat cells with 50 μM TMP. The cells were then washed to remove TMP and fixed after 0, 3, 6, 9, 24 hours, stained and analyzed via FACS in parallel.

T cells (CD4 and CD8) = assay: Cleavage resistant CD40L expression and TMP regulation in T cells; format: cell-based
Method: T cells were transduced with OT-001668 and on day 4, the percentage of CD40L expressing T cells (within the both CD4 and CD8) subpopulations was calculated.
T cells were transduced with ecDHFR regulated construct OT-001671 that include a CD40L protein that was resistant to cleavage. On day 4 cells were treated with 10 μM TMP for 24 hours. […] In an independent experiment, T cells transduced with varying volumes of virus corresponding to OT-001671 were treated with increasing doses of TMP for 24 hours. In Table 41, 0.5 μL, 2 μL, and 10 μL indicate the different volumes of virus that were used.

Jurkat cells [2] = assay: Linker length, ER regulated CD40L, % CD40L positive Jurkat cells; format: cell-based
Method: Jurkat cells were lentivirally transduced and 24 hours after transduction were treated with DMSO or 1 μM Bazedoxifene for another 24 hours and analyzed by flow cytometry for surface expression of CD40L. […] In Table 33, SR indicates stabilization ratio.

COc1cc(Cc2cnc(N)nc2N)cc(OC)c1OC [TMP]
On kinetics (CD40L surface expression, FACS) (Jurkat cells [1]; TMP 5 μM, 0 hours): 743 | On kinetics (CD40L surface expression, FACS) (Jurkat cells [1]; TMP 5 μM, 3 hours): 886 | On kinetics (CD40L surface expression, FACS) (Jurkat cells [1]; TMP 5 μM, 6 hours): 1096 | On kinetics (CD40L surface expression, FACS) (Jurkat cells [1]; TMP 5 μM, 9 hours): 1392 | On kinetics (CD40L surface expression, FACS) (Jurkat cells [1]; TMP 5 μM, 24 hours): 2435 | On kinetics (CD40L surface expression, FACS) (Jurkat cells [1]; TMP 50 μM, 0 hours): 743 | On kinetics (CD40L surface expression, FACS) (Jurkat cells [1]; TMP 50 μM, 3 hours): 890 | On kinetics (CD40L surface expression, FACS) (Jurkat cells [1]; TMP 50 μM, 6 hours): 1180 | On kinetics (CD40L surface expression, FACS) (Jurkat cells [1]; TMP 50 μM, 9 hours): 1466 | On kinetics (CD40L surface expression, FACS) (Jurkat cells [1]; TMP 50 μM, 24 hours): 3952 | Off kinetics (CD40L surface expression, FACS) (Jurkat cells [1]; 0 hours after wash): 3952 | Off kinetics (CD40L surface expression, FACS) (Jurkat cells [1]; 3 hours after wash): 1631 | Off kinetics (CD40L surface expression, FACS) (Jurkat cells [1]; 6 hours after wash): 1620 | Off kinetics (CD40L surface expression, FACS) (Jurkat cells [1]; 9 hours after wash): 1037 | Off kinetics (CD40L surface expression, FACS) (Jurkat cells [1]; 24 hours after wash): 1287 | TMP dose response (percentage of CD40L positive cells) (T cells (CD4 and CD8); CD4+, 0.5 μL virus OT-001671, TMP 0.001 μM): 17.9% | TMP dose response (percentage of CD40L positive cells) (T cells (CD4 and CD8); CD4+, 0.5 μL virus OT-001671, TMP 0.01 μM): 18.8% | TMP dose response (percentage of CD40L positive cells) (T cells (CD4 and CD8); CD4+, 0.5 μL virus OT-001671, TMP 0.1 μM): 20.4% | TMP dose response (percentage of CD40L positive cells) (T cells (CD4 and CD8); CD4+, 0.5 μL virus OT-001671, TMP 1 μM): 20.3% | TMP dose response (percentage of CD40L positive cells) (T cells (CD4 and CD8); CD4+, 0.5 μL virus OT-001671, TMP 10 μM): 27.5% | TMP dose response (percentage of CD40L positive cells) (T cells (CD4 and CD8); CD4+, 2 μL virus OT-001671, TMP 0.001 μM): 11.8% | TMP dose response (percentage of CD40L positive cells) (T cells (CD4 and CD8); CD4+, 2 μL virus OT-001671, TMP 0.01 μM): 12.2% | TMP dose response (percentage of CD40L positive cells) (T cells (CD4 and CD8); CD4+, 2 μL virus OT-001671, TMP 0.1 μM): 14.9% | TMP dose response (percentage of CD40L positive cells) (T cells (CD4 and CD8); CD4+, 2 μL virus OT-001671, TMP 1 μM): 17.6% | TMP dose response (percentage of CD40L positive cells) (T cells (CD4 and CD8); CD4+, 2 μL virus OT-001671, TMP 10 μM): 30% | TMP dose response (percentage of CD40L positive cells) (T cells (CD4 and CD8); CD4+, 10 μL virus OT-001671, TMP 0.001 μM): 4.74% | TMP dose response (percentage of CD40L positive cells) (T cells (CD4 and CD8); CD4+, 10 μL virus OT-001671, TMP 0.01 μM): 6.79% | TMP dose response (percentage of CD40L positive cells) (T cells (CD4 and CD8); CD4+, 10 μL virus OT-001671, TMP 0.1 μM): 7.65% | TMP dose response (percentage of CD40L positive cells) (T cells (CD4 and CD8); CD4+, 10 μL virus OT-001671, TMP 1 μM): 17.2% | TMP dose response (percentage of CD40L positive cells) (T cells (CD4 and CD8); CD4+, 10 μL virus OT-001671, TMP 10 μM): 43.7% | TMP dose response (percentage of CD40L positive cells) (T cells (CD4 and CD8); CD8+, 0.5 μL virus OT-001671, TMP 0.001 μM): 0.59% | TMP dose response (percentage of CD40L positive cells) (T cells (CD4 and CD8); CD8+, 0.5 μL virus OT-001671, TMP 0.01 μM): 0.56% | TMP dose response (percentage of CD40L positive cells) (T cells (CD4 and CD8); CD8+, 0.5 μL virus OT-001671, TMP 0.1 μM): 0.45% | TMP dose response (percentage of CD40L positive cells) (T cells (CD4 and CD8); CD8+, 0.5 μL virus OT-001671, TMP 1 μM): 0.43% | TMP dose response (percentage of CD40L positive cells) (T cells (CD4 and CD8); CD8+, 0.5 μL virus OT-001671, TMP 10 μM): 2.44% | TMP dose response (percentage of CD40L positive cells) (T cells (CD4 and CD8); CD8+, 2 μL virus OT-001671, TMP 0.001 μM): 0.6% | TMP dose response (percentage of CD40L positive cells) (T cells (CD4 and CD8); CD8+, 2 μL virus OT-001671, TMP 0.01 μM): 0.59% | TMP dose response (percentage of CD40L positive cells) (T cells (CD4 and CD8); CD8+, 2 μL virus OT-001671, TMP 0.1 μM): 0.88% | TMP dose response (percentage of CD40L positive cells) (T cells (CD4 and CD8); CD8+, 2 μL virus OT-001671, TMP 1 μM): 1.29% | TMP dose response (percentage of CD40L positive cells) (T cells (CD4 and CD8); CD8+, 2 μL virus OT-001671, TMP 10 μM): 5.57% | TMP dose response (percentage of CD40L positive cells) (T cells (CD4 and CD8); CD8+, 10 μL virus OT-001671, TMP 0.001 μM): 1.18% | TMP dose response (percentage of CD40L positive cells) (T cells (CD4 and CD8); CD8+, 10 μL virus OT-001671, TMP 0.01 μM): 0.89% | TMP dose response (percentage of CD40L positive cells) (T cells (CD4 and CD8); CD8+, 10 μL virus OT-001671, TMP 0.1 μM): 0.95% | TMP dose response (percentage of CD40L positive cells) (T cells (CD4 and CD8); CD8+, 10 μL virus OT-001671, TMP 1 μM): 2.87% | TMP dose response (percentage of CD40L positive cells) (T cells (CD4 and CD8); CD8+, 10 μL virus OT-001671, TMP 10 μM): 12.4%

B1: OT-001965: ER regulated CD40L construct with varied linker length (protein)
chain: MSLALSLTADQMVSALLDAEPPILYSEYDPTRPFSEASMMGLLTNLADRELVHMINWAKRVPGFVDLTLHDQVHLLECAWMEILMIGLVWRSMEHPGKLLFAPNLLLDRDQGKCVEGGVEIFDMLLATSSRFRMMNLQGEEFVCLKSIILLNSGVYTFLSSTLKSLEEKDHIHRVLDKITDTLIHLMAKAGLTLQQQHQRLAQLLLILSHIRHMSNKRMEHLYSMKCKNVVPLSDLLLEMLDAHRLGSGMIETYNQTSPRSAATGLPISMKIFMYLLTVFLITQMIGSALFAVYLHRRLDKIEDERNLHEDFVFMKTIQRCNTGERSLSLLNCEEIKSQFEGFVKDIMLNKEETKKENSFEMQKGDQNPQIAAHVISEASSKTTSVLQWAEKGYYTMSNNLVTLENGKQLTVKRQGLYYIYAQVTFCSNREASSQAPFIASLCLKSPGRFERILLRAANTHSSAKPCGQQSIHLGGVFELQPGASVFVNVTDPSQVSHGTGFTSFGLLKL
Percent of Jurkat cells expressing CD40L (Jurkat cells [2]; 1 μM Bazedoxifene): 27% | SR (Jurkat cells [2]; 1 μM Bazedoxifene versus DMSO, % CD40L positive Jurkat cells): 9 | Percent of Jurkat cells expressing CD40L (Jurkat cells [2]; DMSO): 3%
